Measured values as given in patent US20040204368A1, “Oxadiazole derivative compounds and drugs containing these compounds as the active ingredient” (priority 2001, published 2004).

Molecular target: T1, Cathepsin K (Homo sapiens, UniProt P43235)
T1 sequence (P43235 115-329): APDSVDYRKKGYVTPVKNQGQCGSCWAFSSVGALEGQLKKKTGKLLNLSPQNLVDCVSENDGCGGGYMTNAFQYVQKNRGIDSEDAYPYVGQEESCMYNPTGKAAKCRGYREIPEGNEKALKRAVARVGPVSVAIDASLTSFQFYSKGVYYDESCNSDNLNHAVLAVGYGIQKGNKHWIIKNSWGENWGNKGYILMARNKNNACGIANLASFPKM
Experiment: Measurement of cathepsin K inhibitory activity
Type: biochemical
Conditions: Dixon plot, pH 5.5, 37° C.
Protocol: (i) Measurement of Cathepsin K Inhibitory Activity
65 μL of Cathepsin K enzyme reaction buffer (50 mmol/L of 2-(N-morpholino)ethanesulfonate, 2 mmol/L of ethylene diamine tetraacetate (EDTA) and 4 mmol/L of dithio threitol (DTT) were mixed to adjust to pH 5.5), 5 μL of cysteine protease inhibitor solution of several concentrations, 20 μL of synthesized substrate (t-butyloxycarbonyl-L-alanyl-glycyl-L-prolyl-L-arginine-4-methyl-chromanyl-7-amide) solution of several concentrations and 10 μL of cathepsin K enzyme solution were mixed and the increase of fluorescence intensity when reacted at 37° C. was measured (Ex (excitation wavelength)=355 nm, Em (fluorescence wavelength)=460 nm). As to the substrate and the compound of the present invention, enzyme reactions were carried out in combination of several appropriate concentrations and Dixon plotting was prepared, to define the absolute value of X-coordinate of the intersection point of the graph as Ki value.

Ki: 48 nM
Structure (SMILES): CC(C)CC(NC(=O)C1CCCCCC1)C(=O)c1nnc(SCCN(C)C)o1 (stereo not shown) [example 1]
